In the assay the target is human cardiac Na+ channel alpha subunit (SCN5A, hH1) (Homo sapiens, UniProt Q14524). Kind of assay: whole-cell patch clamp, use-dependent block at […] external. The class given is cell-based. Conditions: read-out: % use-dependent block at 10 μM. Background: Patch clamp records ionic current or voltage across a cell membrane.
Chain of human cardiac Na+ channel alpha subunit (SCN5A, hH1) (Q14524 whole entry): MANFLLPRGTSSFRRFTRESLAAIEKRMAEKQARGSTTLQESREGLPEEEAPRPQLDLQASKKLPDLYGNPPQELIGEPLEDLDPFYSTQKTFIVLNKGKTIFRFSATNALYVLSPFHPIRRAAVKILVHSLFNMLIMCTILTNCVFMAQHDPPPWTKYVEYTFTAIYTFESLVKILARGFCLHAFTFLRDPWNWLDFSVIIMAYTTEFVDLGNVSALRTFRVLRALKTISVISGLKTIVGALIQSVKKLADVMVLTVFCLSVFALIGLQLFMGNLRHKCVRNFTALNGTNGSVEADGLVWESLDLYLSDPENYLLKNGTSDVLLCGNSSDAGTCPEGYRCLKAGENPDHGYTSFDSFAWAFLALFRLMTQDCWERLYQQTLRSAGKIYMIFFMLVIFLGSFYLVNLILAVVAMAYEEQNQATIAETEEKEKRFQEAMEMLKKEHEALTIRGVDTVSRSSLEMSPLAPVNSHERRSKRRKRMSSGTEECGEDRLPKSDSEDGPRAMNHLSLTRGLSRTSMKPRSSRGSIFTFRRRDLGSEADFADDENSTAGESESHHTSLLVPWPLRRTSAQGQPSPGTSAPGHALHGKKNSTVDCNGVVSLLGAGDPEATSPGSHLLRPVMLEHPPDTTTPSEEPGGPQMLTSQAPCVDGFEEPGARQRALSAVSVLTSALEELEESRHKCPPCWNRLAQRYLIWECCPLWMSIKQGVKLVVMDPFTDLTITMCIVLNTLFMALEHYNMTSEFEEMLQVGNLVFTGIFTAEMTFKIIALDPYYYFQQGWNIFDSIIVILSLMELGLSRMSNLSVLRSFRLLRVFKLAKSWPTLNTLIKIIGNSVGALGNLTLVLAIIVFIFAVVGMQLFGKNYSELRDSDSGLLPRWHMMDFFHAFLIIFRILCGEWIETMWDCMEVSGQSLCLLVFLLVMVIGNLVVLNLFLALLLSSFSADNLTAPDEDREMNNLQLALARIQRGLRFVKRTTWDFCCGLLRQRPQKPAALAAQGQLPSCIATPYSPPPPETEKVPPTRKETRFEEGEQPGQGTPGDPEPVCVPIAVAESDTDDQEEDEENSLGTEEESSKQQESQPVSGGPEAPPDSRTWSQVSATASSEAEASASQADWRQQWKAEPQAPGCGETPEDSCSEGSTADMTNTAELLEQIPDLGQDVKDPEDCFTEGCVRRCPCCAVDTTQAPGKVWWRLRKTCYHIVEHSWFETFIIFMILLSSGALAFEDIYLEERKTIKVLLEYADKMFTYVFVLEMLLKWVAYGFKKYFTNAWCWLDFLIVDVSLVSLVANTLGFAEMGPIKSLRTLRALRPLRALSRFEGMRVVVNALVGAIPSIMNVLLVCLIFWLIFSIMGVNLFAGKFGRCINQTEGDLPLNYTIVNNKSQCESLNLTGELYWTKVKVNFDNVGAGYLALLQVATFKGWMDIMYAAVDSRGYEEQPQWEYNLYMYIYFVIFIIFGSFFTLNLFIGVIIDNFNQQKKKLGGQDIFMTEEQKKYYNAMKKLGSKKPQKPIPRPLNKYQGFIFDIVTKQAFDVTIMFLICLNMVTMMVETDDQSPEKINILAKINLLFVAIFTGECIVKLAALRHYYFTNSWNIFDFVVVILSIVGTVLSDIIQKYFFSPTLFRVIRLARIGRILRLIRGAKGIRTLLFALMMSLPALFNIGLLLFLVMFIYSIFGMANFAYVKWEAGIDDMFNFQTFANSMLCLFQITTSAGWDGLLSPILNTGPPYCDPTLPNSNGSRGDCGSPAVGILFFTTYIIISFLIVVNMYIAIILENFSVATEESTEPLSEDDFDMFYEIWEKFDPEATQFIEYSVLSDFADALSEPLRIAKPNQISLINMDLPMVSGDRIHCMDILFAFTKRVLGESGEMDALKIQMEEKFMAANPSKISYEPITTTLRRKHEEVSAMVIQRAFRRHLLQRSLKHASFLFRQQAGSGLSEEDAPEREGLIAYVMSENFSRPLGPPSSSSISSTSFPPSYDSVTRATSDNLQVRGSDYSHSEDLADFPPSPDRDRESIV
Chain of human cardiac Na+ channel alpha subunit (SCN5A, hH1) (Q07699 19-218 partner): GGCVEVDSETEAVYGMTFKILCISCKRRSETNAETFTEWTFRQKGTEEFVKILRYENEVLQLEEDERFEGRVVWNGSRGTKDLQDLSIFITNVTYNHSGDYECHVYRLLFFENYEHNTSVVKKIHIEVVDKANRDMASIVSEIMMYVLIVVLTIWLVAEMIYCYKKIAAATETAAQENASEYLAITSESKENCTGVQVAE

Turning to `O=C(NCC1CCCCN1)c1cc(OCC(F)(F)F)ccc1OCC(F)(F)F` (stereo not shown) [flecainide], the inhibition at 10 µM amounted to 67.3 ± 3.5%.

These data come from article PMC2217334 (The Journal of General Physiology, 2003).
